Measurements reported in publication PMC9863266, “Preclinical Studies and Drug Combination of Low-Cost Molecules for Chagas Disease” (Pharmaceuticals, 2022).
Values joined by “and” are separate entries in the source; they are usually repeats but may differ in a detail not shown here. Identical values can stand only once.

Legend:
[1] = Acute oral toxicity in mice (Up and Down test); format: in vivo; details: CD1 and Balb/c, mouse, in vivo; oral, microemulsion
Description: (§1) After verifying, through the studies indicated above, the low in vitro and in vivo toxicity and the potent trypanosomicidal activity of these molecules and following the steps of preclinical drug development, the acute oral toxicity in vivo in mice was tested. For this study, the compounds were administered orally in the same microemulsion that was used in the pharmacological study on the acute model of Chagas disease. The initial number of animals is defined by the software AOT425 Stat and also depends on if there are LD50 of compounds with similar structures. Variable numbers of animals could be used if there is some toxicity observed during the first administrations. […]. In this case, one of the animals died 10 days post-administration. The LD50 calculated by the statistical program from these experiments was 2000 mg/kg b.w., the maximal dose being used for oral administration. As a result, compound 793 has low acute toxicity in these conditions. For compound 1019, a maximum dose of 2000 mg/kg b.w. was started orally in five mice until one of the ends of the trial criteria was met. […] Throughout the test, during the 14 days, the mice were evaluated by the Irwin test and their masses were recorded. […]

[2] = tested on: CD1 and Balb/c mice; assay: Acute oral toxicity in mice (Up and Down test); format: in vivo; details: 14 days
Description: as §1

[3] = tested on: epimastigote form of T. cruzi, Tulahuen 2 strain; assay: Viability by flow cytometry, CA-AM/IP labeling; format: cell-based; details: 20 × IC50
Description: Additionally, we evaluated the viability of treated parasites by flow cytometry analysis after incubation with methylated acetoxycalcein (CA-AM) and propidium iodide (IP). […] Since the methodology used to determine the IC50 is based on 5 days of incubation, doses 20 times higher were used to analyze cell viability in shorter times. Similarly, these compounds’ concentrations were used to determine the death mechanism involved at the aforementioned times.
Viability studies of parasites by flow cytometry: The feasibility studies were carried out by evaluating the esterase activity of the parasites using Acetoxymethylated Calcein (CA-AM) and IP (Thermo Fisher Scientific). […] Fluorescence intensity for 10,000 events was acquired from two independent experiments and data were analyzed using BD CSampler software (BD Bioscience).

[4] = tested on: T. cruzi epimastigotes; details: read-out: In vitro anti-T. cruzi activity (multiple strains) (IC50); cited from earlier work
[5] = tested on: trypomastigote form of T. cruzi (strain Y); assay: Trypanosomicidal activity in trypomastigotes; format: cell-based; details: Trypanosoma cruzi, 24 h, 4 °C, infected mouse blood
Description: The experiment was performed on infected, three-month-old, Balb/c mice. Seven days post-infection, when in a parasitemia peak (>1.0 × 10^6 parasites /mL), the blood of the living (anesthetized) mouse was extracted from the aorta or eye (1 mL per mouse), and citrate was used as an anticoagulant, then seeded in a 96-well plate with a final volume of 100 μL (90 μL of blood + 10 μL from a stock solution of the compound containing 10% DMSO). It was left at 4 °C, 24 h, then 5 μL of each sample was used to count trypomastigotes using a 40x optical microscope (MO) (50-field method). The plate fill was performed by homogenizing the well before filling each well (very slowly), and it was performed in triplicate or quadruplicate to obtain the IC50 values of each compound.

[6] = tested on: Leishmania spp (cutaneous) promastigotes; set-up: method as in earlier work; details: read-out: In vitro anti-Leishmania spp (cutaneous) activity (IC50); cited from earlier work
[7] = tested on: zebrafish embryos
Description: 1-Phenyl-2-thiourea (0.003%) was added to system water to inhibit melanogenesis in embryos destined for microscopic imaging. The eggs were collected, and the unfertilized ones were discarded. […] At this stage, the membrane that protects the embryo (chorion) was manually removed. This was completed on a 1 % agarose plate and medium for embryos. Two 96-well plates with a curved bottom were prepared. […] One embryo was placed per […], and it was verified that it had not suffered any injury when it was transferred. After preparing the plates, the embryos were evaluated. For this, they were placed in a humid chamber to avoid the evaporation of the compounds and were incubated at 28 °C. At 24 h, the first observation was made and half of the medium in each well was replaced to ensure that the concentrations remained constant during the 96 h of exposure. To do this, 100 µL of medium was removed from each well and replaced with 100 µL of fresh medium. […] In addition, any other type of abnormality that may indicate teratogenicity was recorded. The same was performed every 24 h until 96 h of exposure where the test was considered finished. The embryos were sacrificed in 70% ethanol. […] The curve obtained was fitted to a sigmoid using the OriginLab 8.5 program.

[8] = tested on: Leishmania infantum; set-up: method as in earlier work; details: promastigotes; read-out: In vitro anti-Leishmania infantum (visceral) activity (IC50); cited from earlier work

Structure (SMILES): O=C(/C=C/C=C/c1ccco1)/C=C/C=C/c1ccco1 [Compound 793]
- LD50 at 14 days [1]: 2000 mg/kg
- Signs of acute toxicity (Irwin test, body mass) [2]: did not show signs of acute toxicity
- CA-AM/IP labeling Q1-UR (CA-AM+/IP+ double-labeled parasites) ([3]; 6 h): 82%
- CA-AM/IP labeling Q1-UR (CA-AM+/IP+ double-labeled parasites) ([3]; 24 h): 98%
- IC50 [4]: 5 µM
- IC50 [5]: 25 ± 5 µM
- IC50 [6]: 36 µM
- Teratogenicity in zebrafish (LD50 ± SD) ([7]; 96 h exposure): 22 µM and 22 ± 5 µM
- Selectivity: zebrafish LD50 versus IC50 in the parasite ([7]; zebrafish, in vivo): four
- IC50 [8]: 31 µM
